According to PMC10531346, “Structural Similarities and Overlapping Activities among Dihydroflavonol 4-Reductase, Flavanone 4-Reductase, and Anthocyanidin Reductase Offer Metabolic Flexibility in the Flavonoid Pathway” (International Journal of Molecular Sciences, 2023):
“And” between values parts separate entries of the source, which are not always exact repeats. Equal entries are not always repeated. Where two headings read alike, the source gives them in different places.

Key:
SbANR = SbANR activity assay (dihydroflavonols, flavanones, anthocyanidins); type: biochemical, Sorghum bicolor; conditions: in words
PvDFRa T143S = PvDFRa T143S (Panicum virgatum, UniProt A0A8T0SQV2, T143S); test: Enzyme kinetic assay, PvDFRa T143S mutant; type: biochemical; conditions: relative to wild-type PvDFRa
Procedure: (§1) Site-directed mutagenesis was conducted using primers generated with the QuikChange Primer Design (Agilent Santa Clara, CA USA).
(§2) Kinetic Assays of PvDFRa, SbDFR3, mutant PvDFRa, and SbFNRs: DFR was purified to the same purity as used in crystallization. Enzymatic assay followed the methodology previously reported with small changes. A solution of 0.1 M potassium phosphate at pH 7.0 was utilized, and substrate concentration was varied from 5 µM to 800 µM. The reaction was initiated with 0.05 mg enzyme in a total reaction volume of 200 µL. […] The reaction proceeded for 15 min. at 25 °C and was terminated by the addition of 600 µL 95:5 (v/v) n-butanol:HCl. […] The reactions were centrifuged for 15 min. at 14,000× g and the supernatant was used to determine product concentrations with a GENESYS™ 10S UV-Vis Spectrophotometer (Thermo Scientific, Waltham, MA, USA). The absorbances of cyanidin delphinidin and pelargonidin were measured at 550, 550, and 528 nm, respectively. The concentrations were determined based on calibrations with reference compounds (Figure S12). […] Data analysis was conducted utilizing GraphPad Prism 8.0.2 using linear regression to model the appropriate model. Error in each data point is shown utilizing the standard deviation.

SbFNR2 = SbFNR2 activity assay (dihydroflavonols, flavanones, anthocyanidins); type: biochemical, Sorghum bicolor; conditions: for activity of SbFNR2 against the substrate: in words
SbFNR1 = SbFNR1 (Sorghum bicolor, UniProt C5YGL7); test: SbFNR1 activity assay (dihydroflavonols, flavanones, anthocyanidins); type: biochemical; conditions: for activity of SbFNR1 against the substrate: in words; for product yield compared to PvDFRa and SbDFR3: flavanones, long incubation
PvDFRa Q242A = PvDFRa Q242A (Panicum virgatum, UniProt A0A8T0SQV2, Q242A); test: Enzyme kinetic assay, PvDFRa Q242A mutant; type: biochemical; conditions: for kcat: NADPH 2 mM
Procedure: as §1, §2

PvDFRa WT = PvDFRa WT (Panicum virgatum, UniProt A0A8T0SQV2); test: Enzyme kinetic assay, wild-type PvDFRa; type: biochemical; conditions: for substrate inhibition at higher substrate concentrations: KI much greater than Km, could not be quantified
Procedure: as §2

PvDFRa [1] = target: T1, PvDFRa (Panicum virgatum, UniProt A0A8T0SQV2); test: Isothermal titration calorimetry, PvDFRa; type: binding; conditions: for ∆H / ∆S: ITC, 298 K
Procedure: In order to obtain thermodynamic parameters for the association, isothermal titration calorimetry (ITC) for PvDFRa was performed (Figure S8, Table 2).
Isothermal Titration Calorimetry: Purified PvDFR was dialyzed to a buffer containing 50 mM Bis-Tris, 50 mM Tricine (pH 6.5), 200 mM NaCl and 2.5% (v/v) glycerol. Substrates were dissolved in the same buffer used for enzyme dialysis. Analysis was conducted utilizing a Microcal ITC 200 (Malvern). […] A total of 22 injections were made, each with a volume of 2 uL. Data analysis was conducted utilizing Origin Software 7 and modeled to the appropriate nonlinear regression.

SbDFR3 = SbDFR3 (Sorghum bicolor, UniProt C5XVF8); test: Enzyme kinetic assay, SbDFR3; conditions: NADPH 2 mM
Procedure: as §2

PvDFRa [2] = target: T1, PvDFRa; type: biochemical
Procedure: The referenced Vmax and Km values were used to make a nonlinear regression. […] Five µL of the reaction was injected into a reversed-phase HPLC column XBridge Peptide BEH C18 (Waters, Milford, MA, USA). Acetonitrile:water was used as the mobile phase, using a gradient in the concentration of acetonitrile from 5% (v/v) to 100%.

[3] = tested on: O=C1c2c(O)cc(O)cc2OC(c2ccc(O)c(O)c2)[C@H]1O; test: purified protein, by the assay type; conditions: other: NADPH 2 mM
[4] = tested on: O=C1c2c(O)cc(O)cc2O[C@H](c2cc(O)c(O)c(O)c2)[C@H]1O; test: purified protein, by the assay type; conditions: other: NADPH 2 mM
[5] = tested on: O=C1c2c(O)cc(O)cc2O[C@H](c2ccc(O)cc2)[C@H]1O; test: purified protein, by the assay type; conditions: other: NADPH 2 mM
[6] = tested on: O=C1C[C@@H](c2ccc(O)cc2)Oc2cc(O)cc(O)c21; test: purified protein, by the assay type; conditions: other: NADPH 2 mM

O=C1c2c(O)cc(O)cc2O[C@H](c2ccc(O)cc2)[C@H]1O [DHK, dihydrokaempferol]
activity of SbANR against the substrate (SbANR): no significant activity
increased catalytic efficiency of T143S mutant (PvDFRa T143S): 1.09 fold
activity of SbFNR2 against the substrate (SbFNR2): no significant activity
activity of SbFNR1 against the substrate (SbFNR1): no significant activity
kcat (PvDFRa Q242A): 0.007835 s⁻¹
higher catalytic efficiency of Q242A mutant (PvDFRa Q242A; relative to wild-type PvDFRa): 1.7 fold
substrate inhibition at higher substrate concentrations (PvDFRa WT): substrate inhibition was observed
Kd (PvDFRa [1]): 26.4 ± 2.26 µM
∆H (PvDFRa [1]): -6.19 ± 5.54 kcal/mol
∆S (PvDFRa [1]): 0.854 Cal mol^−1 K^−1
Km (SbDFR3): 118 ± 22.6 µM
kcat (SbDFR3): 0.0101 s⁻¹ and 0.0101 ± 0.00852 s⁻¹

O=C1c2c(O)cc(O)cc2O[C@H](c2cc(O)c(O)c(O)c2)[C@H]1O [DHM, dihydromyricetin]
activity of SbANR against the substrate (SbANR): no significant activity
activity of SbFNR2 against the substrate (SbFNR2): no significant activity
activity of SbFNR1 against the substrate (SbFNR1): no significant activity
kcat (PvDFRa Q242A): 0.03788 s⁻¹
substrate inhibition at higher substrate concentrations (PvDFRa WT): substrate inhibition was observed
Kd (PvDFRa [1]): 21.2 ± 3.26 µM
∆H (PvDFRa [1]): -9.10 ± 2.45 kcal/mol
∆S (PvDFRa [1]): −9.14 Cal mol^−1 K^−1
kcat (SbDFR3): 0.07733 s⁻¹

O=C1c2c(O)cc(O)cc2O[C@H](c2ccc(O)c(O)c2)[C@H]1O [DHQ, dihydroquercetin]
activity of SbANR against the substrate (SbANR): no significant activity
increased catalytic efficiency of T143S mutant (PvDFRa T143S): 3.53 fold
activity of SbFNR2 against the substrate (SbFNR2): no significant activity
activity of SbFNR1 against the substrate (SbFNR1): no significant activity
kcat (PvDFRa Q242A): 0.04285 s⁻¹
substrate inhibition at higher substrate concentrations (PvDFRa WT): substrate inhibition was observed
Kd (PvDFRa [1]): 16.9 ± 4.35 µM
∆H (PvDFRa [1]): -10.77 ± 0.18 kcal/mol
∆S (PvDFRa [1]): −13.7 Cal mol^−1 K^−1
kcat (SbDFR3): 0.06325 s⁻¹

O=C1C[C@@H](c2ccc(O)c(O)c2)Oc2cc(O)cc(O)c21 [Eriodictyol, eriodictyol]
activity of SbANR against the substrate (SbANR): did not display any activity
activity of SbFNR2 against the substrate (SbFNR2): did not display any activity
product yield compared to PvDFRa and SbDFR3 (SbFNR1): ~ 3%
substrate inhibition at higher substrate concentrations (PvDFRa WT): substrate inhibition occurred
kcat for flavanones, given for PvDFRa (PvDFRa WT; NADPH 2 mM): 0.00206 s⁻¹
Km (PvDFRa WT; NADPH 2 mM, pH 7.0, 25 °C): 246 ± 224 µM
kcat (PvDFRa WT; NADPH 2 mM, pH 7.0, 25 °C): 0.01414 ± 0.00932 s⁻¹
kcat (PvDFRa WT; NADPH 2 mM, pH 7.0, 25 °C, listed as eriodictyol): 0.01414 s⁻¹
Kd (PvDFRa [1]): 64.9 ± 11.8 µM
∆H (PvDFRa [1]): -6.23 ± 0.28 kcal/mol
∆S (PvDFRa [1]): −1.74 Cal mol^−1 K^−1
Km (SbDFR3): 40.7 ± 31.9 µM
kcat (SbDFR3): 0.00206 ± 0.000183 s⁻¹
Km (SbDFR3; read-out: Km): 25.2 µM

O=C1C[C@@H](c2ccc(O)cc2)Oc2cc(O)cc(O)c21 [Naringenin, naringenin]
activity of SbANR against the substrate (SbANR): did not display any activity
activity of SbFNR2 against the substrate (SbFNR2): did not display any activity
product yield compared to PvDFRa and SbDFR3 (SbFNR1): ~ 3%
substrate inhibition at higher substrate concentrations (PvDFRa WT): substrate inhibition occurred
kcat for flavanones, given for PvDFRa (PvDFRa WT; NADPH 2 mM): 0.03473 s⁻¹
kcat (PvDFRa WT; NADPH 2 mM, pH 7.0, 25 °C): 0.05915 s⁻¹
Kd (PvDFRa [1]): 177 ± 25.3 µM
∆H (PvDFRa [1]): -4.82 ± 0.39 kcal/mol
∆S (PvDFRa [1]): 0.986 Cal mol^−1 K^−1

Oc1cc(O)c2cc(O)c(-c3cc(O)c(O)c(O)c3)[o+]c2c1 [delphinidin]
activity of SbANR against the substrate (SbANR): showed activity
activity of SbFNR2 against the substrate (SbFNR2): neither SbFNR1 nor SbFNR2 displayed any activity
activity of SbFNR1 against the substrate (SbFNR1): neither SbFNR1 nor SbFNR2 displayed any activity

Oc1ccc([C@H]2Oc3cc(O)cc(O)c3C[C@H]2O)cc1 [epiafzelchin]
efficiency relative to the activity of SbANR (SbFNR2; anthocyanidin reduction): 43%

O=c1c(O)c(-c2ccc(O)c(O)c2)oc2cc(O)cc(O)c12 [quercetin]
substrate of PvDFRa or not (PvDFRa [2]; 500 µM quercetin, 2 mM NADPH, 30 min, HPLC): not a substrate
type of inhibition of PvDFRa (PvDFRa [2]; DHM as substrate): noncompetitive inhibition
Vmax (PvDFRa [2]; DHM as substrate, 75 μM quercetin): 4.193 min⁻¹
Vmax (PvDFRa [2]; DHM as substrate, 150 μM quercetin): 3.545 min⁻¹

NADH
enzyme efficiency with NADH relative to NADPH (PvDFRa WT; NADH utilized instead of NADPH): 60.55%

PvDFRa Q242A (Panicum virgatum; Q242A)
Km ([3]; pH 7.0): 156.8 ± 121.41 µM
kcat ([3]; pH 7.0): 0.0428 s⁻¹
kcat/Km ([3]; pH 7.0): 273 M⁻¹ s⁻¹
Km ([4]; pH 7.0): 119.2 ± 87.86 µM
kcat ([4]; pH 7.0): 0.0379 s⁻¹
kcat/Km ([4]; pH 7.0): 318 M⁻¹ s⁻¹
Km ([5]; pH 7.0): 74.59 ± 62.70 µM
kcat ([5]; pH 7.0): 0.00783 s⁻¹
kcat/Km ([5]; pH 7.0): 105 M⁻¹ s⁻¹

PvDFRa T143S (Panicum virgatum; T143S)
Km ([3]; pH 7.0): 19.04 ± 11.21 µM
kcat ([3]; pH 7.0): 0.0293 s⁻¹
kcat/Km ([3]; pH 7.0): 1540 M⁻¹ s⁻¹
Km ([4]; pH 7.0): 7.409 ± 0.2465 µM
kcat ([4]; pH 7.0): 0.0176 s⁻¹
kcat/Km ([4]; pH 7.0): 2380 M⁻¹ s⁻¹
Km ([5]; pH 7.0): 137.7 ± 36.00 µM
kcat ([5]; pH 7.0): 0.00956 s⁻¹
kcat/Km ([5]; pH 7.0): 69.3 M⁻¹ s⁻¹

PvDFRa WT (Panicum virgatum)
Km ([3]; pH 7.0, 25 °C, 25.0 °C): 128.6 ± 14.3 µM
kcat ([3]; pH 7.0, 25 °C, 25.0 °C): 0.0559 s⁻¹
kcat/Km ([3]; pH 7.0, 25 °C, 25.0 °C): 435 M⁻¹ s⁻¹
Km ([4]; pH 7.0, 25 °C, 25.0 °C): 150.0 ± 56.9 µM
kcat ([4]; pH 7.0, 25 °C, 25.0 °C): 0.0377 s⁻¹
kcat/Km ([4]; pH 7.0, 25 °C, 25.0 °C): 251 M⁻¹ s⁻¹
kcat ([5]; pH 7.0, 25 °C, 25.0 °C): 0.0121 s⁻¹
kcat/Km ([5]; pH 7.0, 25 °C, 25.0 °C): 63.2 M⁻¹ s⁻¹
Km ([6]; pH 7.0, 25 °C, 25.0 °C): 407.6 ± 223.6 µM
kcat ([6]; pH 7.0, 25 °C, 25.0 °C): 0.0592 s⁻¹
kcat/Km ([6]; pH 7.0, 25 °C, 25.0 °C): 145 M⁻¹ s⁻¹

SbDFR3 (Sorghum bicolor)
Km ([3]; pH 7.0): 166.4 ± 28.8 µM
kcat ([3]; pH 7.0): 0.0633 s⁻¹
kcat/Km ([3]; pH 7.0): 380 M⁻¹ s⁻¹
Km ([4]; pH 7.0): 118.5 ± 0.2885 µM
kcat ([4]; pH 7.0): 0.0773 s⁻¹
kcat/Km ([4]; pH 7.0): 653 M⁻¹ s⁻¹
Km ([6]; pH 7.0): 118.2 ± 14.92 µM
kcat ([6]; pH 7.0): 0.0347 ± 0.00145 s⁻¹
kcat/Km ([6]; pH 7.0): 294 M⁻¹ s⁻¹
